System: human umbilical vein endothelial cells (HUVECs)
Assay: HUVEC viability, WST-1 assay
Assay type: cell-based
Details: WST-1, 24 h
Procedure: As a third in vitro toxicity study in the human blood circulation system, the effects of FA, D1, and D2 on the viability of human umbilical vein endothelial cells (HUVECs; RRID CVCL_2959; Lonza, Italy; Cat. no. CC-2517) were determined using the WST-1 assay (Takara, Takara Bio Europe, Europe, Saint-Germain-en-Laye, France), according to the previously published protocol.[32] Briefly, the cells were cultured according to the manufacturer’s guidelines with the following ingredients: EGM-2-medium + bullet kit (Lonza, Clonetics, Italy), accutase (Sigma-Aldrich, Germany), and HEPES-buffered saline solution (Lonza, Basel, Switzerland). For the assay, the cells were seeded at the density of 7 500 HUVECs per well on 96-well plates and cultured for 24 h to obtain 70% confluency. Subsequently, the cells were treated with studied compounds in multiplicate (n = 6–8) at the concentration of 0.1–100 μM in the growth medium for 24 h (37 °C, 5% CO2). Cells with untreated growth medium represented 100% viability, whereas cells treated with medium containing 0.5% (v/v) methanol served as a negative control for drug solvent. After treating cells for 24 h, medium was removed, the cells were washed with the culture medium (100 μl/well), and 100 μL of WST-1 reagent dissolved in culture medium was added into each well. The plates were incubated at 37 °C with 5% CO2 for 2 h, after which absorbance values were measured at the 450 nm wavelength using a microplate reader (iMARK, Bio-Rad). Additionally, the effects of treatments on HUVEC morphology were examined microscopically using a phase-contrast Opta-Tech inverted microscope equipped with OptaView 7 software (Opta-Tech, Warsaw, Poland) for image analysis.

## COc1cc(C=CC(=O)O)ccc1O [ferulic acid, 4-hydroxy-3-methoxycinnamic acid]
  effect on HUVEC viability at 1–50 μM: no statistically significant effect
